# Measurements reported in patent US20070021501A1, “Methods of treating epileptogenesis” (priority 2005, published 2007).
# Experiments:
# [1] = test system: lithium-pilocarpine model of temporal lobe epilepsy in the rat; test: Latency to and frequency of spontaneous seizures, video recording (Example 2); format: in vivo, Sprague-Dawley rats
# Method: The effects of DZP and the 4 doses of TC on epileptogenesis were investigated by daily video recording of the animals for 10 h per day. Video recording was performed for 4 weeks during which the occurrence of the first seizure was noted as well as the total number of seizures over the whole period. Animals were then taken off the video recording system and kept for 4 additional weeks in our animal facilities before they were sacrificed after a total period of 8 weeks of epilepsy.
# [2] = test system: lithium-pilocarpine model of temporal lobe epilepsy in the rat; test: Quantification of cell densities in hippocampus, thalamus and cortex after Li-pilo SE (Example 1); format: in vivo; settings: for more damage (worsening of cell loss) compared with pilo-DZP rats: TC 10 mg/kg
# Method: Quantification of cell densities was performed at 6 days after SE on 8 pilo-DZP, 8 pilo-TC10, 7 pilo-TC30, 7 pilo-TC60, and 6 saline-saline rats.
# Cell counts were performed twice in a blind manner and were the average of at least 3 values from 2 adjacent sections in each individual animal. Counts involved only cells larger than 10 μm, smaller ones being considered as glial cells.
# For the comparison of the characteristics of SE in pilo-saline and pilo-test compound animals, a non-paired Student's t-test was used. The comparison between the number of rats seizing in both groups was performed by means of a Chi square test. For neuronal damage, statistical analysis between groups was performed using ANOVA followed by a Fisher's test for multiple comparisons using the Statview software (Fisher R A, 1946a, Statistical Methods for Research Workers (10th edition) Oliver & Boyd, Edinburgh; Fisher R A, 1946b, The Design of Experiments (4th edition) Oliver & Boyd, Edinburgh) Behavioral and EEG Characteristics of Lithium-pilocarpine Status Epilepticus
# [3] = test system: lithium-pilocarpine model of temporal lobe epilepsy in the rat; test: Quantification of cell densities (neuronal counting) 14 days after Li-pilo SE (Example 2); settings: 14 days after SE; for cell loss: hippocampus CA1 pyramidal cell layer
# Method: All rats received lithium chloride (3 meq/kg, i.p., Sigma, St Louis, Mo., U.S.A.) and about 20 h later, all animals received also methylscopolamine bromide (1 mg/kg, s.c., Sigma) that was administered to limit the peripheral effects of the convulsant. […] The effects of increasing doses of TC were studied in 5 groups of rats. […] The control group received vehicle instead of pilocarpine and TC.
# For neuronal counting, animals were deeply anesthetized with 1.8 g/kg pentobarbital (Dolethal®, Vétoquinol, Lure, France). Brains were then removed and frozen. Serial 20 μm slices were cut in a cryostat, air-dried during several days before thionine staining. […] The grid of counting was placed on a well defined area of the cerebral structure of interest and counting was carried out with a microscopic enlargement of 200- or 400-fold defined for each single cerebral structure. Cell counts were performed twice on each side of three adjacent sections for each region by a single observer unaware of the animal's treatment. The number of cells obtained in the 12 counted fields in each cerebral structure was averaged. This procedure was used to minimize the potential errors that could result from double counting leading to overestimation of cell numbers. […] Counts involved only neurons with cell bodies larger than 10 μm. Cells with small cell bodies were considered as glial cells and were not counted.
# For neuronal damage and epileptogenesis, statistical analysis between groups was performed by means of a one-way analysis of variance followed by a post-hoc Dunnett or Fisher test using the Statistica software.
# [4] = test system: lithium-pilocarpine model of temporal lobe epilepsy in the rat; test: Mossy fiber sprouting in hippocampus, Timm staining (Example 1); format: in vivo
# Method: At 2 months after the onset of spontaneous recurrent seizures, mossy fiber sprouting was examined on rats in the chronic period exposed to the test compound or DZP and in 3 saline-saline rats. Animals were deeply anaesthetized and perfused transcardially with saline followed by 100 ml of 1.15% (w/v) Na2S in 0.1 M phosphate buffer, and 100 ml of 4% (v/v) formaldehyde in 0.1 M phosphate buffer. Brains were removed from skull, post-fixed in 4% formaldehyde during 3-5 h and 40 μm sections were cut on a sliding vibratome and mounted on gelatin-coated slides.
# The following day, sections were developed in the dark in a 26° C. solution of 50% (w/v) arabic gum (160 ml), sodium citrate buffer (30 ml), 5.7% (w/v) hydroquinone (80 ml) and 10% (w/v) silver nitrate (2.5 ml) during 40-45 min. The sections were then rinsed with tap water at 40° C. during at least 45 min, rinsed rapidly with distilled water and allowed to dry. They were dehydrated in ethanol and coverslipped.
# Mossy fiber sprouting was evaluated according to criteria previously described in dorsal hippocampus (Cavazos et al., 1991, J Neurosci 11:2795-2803.), which are follows: 0—no granules between the tips and crest of the DG; 1—sparse granules in the supragranular region in a patchy distribution between the tips and crest of DG; 2—more numerous granules in a continuous distribution between the tips and crest of DG; 3—prominent granules in a continuous pattern between tips and crest, with occasional patches of confluent granules between tips and crest; 4—prominent granules that form a confluent dense laminar band between tips and crest and 5—confluent dense laminar band of granules that extends into the inner molecular layer.
# [5] = test system: lithium-pilocarpine status epilepticus in the rat; test: Mortality over the first 48 h after Li-pilo SE (Example 2); format: in vivo, Sprague-Dawley rats
# Method: Adult male Sprague-Dawley rats provided by Janvier Breeding Center (Le Genest-St-lsle, France) were housed under controlled, uncrowded standard conditions at 20-22° C. (light/dark cycle, 7.00 a.m.-7.00 p.m. lights on), with food and water available ad libitum. All animal experimentation was performed in accordance with the rules of the European Communities Council Directive of Nov. 24, 1986 (86/609/EEC), and the French Department of Agriculture (License N^o 67-97).
# [6] = test system: lithium-pilocarpine status epilepticus in the rat; test: EEG patterns during and after Li-pilo SE (Example 1); format: in vivo
# Method: Male Wistar rats weighing 225-250 g, provided by Janvier Breeding Center (Le Genest-St-lste, France) were housed under controlled standard conditions (light/dark cycle, 7.00 a.m.-7.00 p.m. lights on), with food and water available ad libitum. All animal experimentation was performed in accordance with the rules of the European Communities Council Directive of Nov. 24, 1986 (86/609/EEC), and the French Department of Agriculture (License N^o 67-97). For electrode implantation, rats were anesthetized by an i.p. injection of 2.5 mg/kg diazepam (DZP, Valium, Roche, France) and […] ketamine chlorhydrate (Imalgene 1000, Rhone Merrieux, France). Four single-contact recording electrodes were placed on the skull, over the parietal cortex, two on each side.
# The bilateral EEG cortical activity was recorded during the whole duration of SE and behavioral changes were noted.
# The effects of the test compound on the EEG and on the latency to occurrence of SRS were investigated by daily video recording of the animals for 10 h per day and the recording of the electrographic activity twice a week for 8 h.
smiles,measurement,setting,value
NC(=O)OC[C@@H](O)c1ccccc1Cl [TC],frequency of spontaneous seizures over the four weeks of recording,[1]; TC 30 mg/kg,tendency to be higher
same,percentage of rats with short latencies to seizures (shorter than 40 days after SE),[1]; TC 90 mg/kg (4/11),36%
same,percentage of non-epileptic rats (no seizure over 150 days post-SE),[1]; TC 120 mg/kg,45%
same,percentage of rats with short latencies to seizures (shorter than 40 days after SE),[1]; TC 120 mg/kg (1/9),11%
same,frequency of spontaneous seizures over the four weeks of recording,"[1]; TC60, 90 and 120 groups",lower
same,more damage (worsening of cell loss) compared with pilo-DZP rats,[2]; dorsal entorhinal cortex layers III-IV,28%
same,more damage (worsening of cell loss) compared with pilo-DZP rats,[2]; ventral entorhinal cortex layers III-IV,35%
same,cell loss,"[2]; TC 30 mg/kg, hippocampus CA1 pyramidal layer",35%
same,cell loss,"[2]; TC 60 mg/kg, hippocampus CA1 pyramidal layer",16%
same,reduction of neuronal damage recorded in the pilo-DZP rats,"[2]; TC 60 mg/kg, piriform cortex layer II",41%
same,reduction of neuronal damage recorded in the pilo-DZP rats,"[2]; TC 60 mg/kg, piriform cortex layers III-IV",44%
same,neuroprotection compared to pilo-DZP rats,"[2]; TC 60 mg/kg, ventral entorhinal cortex layers III-IV",31%
same,cell loss,"[2]; pilo-test compound animals (range over doses), hilus of dentate gyrus",69-72%
same,protection compared to pilo-DZP rats,"[2]; test compound 60 mg/kg, CA3b",significantly neuroprotective
same,protection compared to pilo-DZP rats,"[2]; test compound, CA3a area",did not afford any protection
same,neurons surviving,"[3]; TC 120 mg/kg, all parts of the entorhinal cortex (range)",85-94%
same,neuronal loss,"[3]; TC 120 mg/kg, hilus of dentate gyrus",53%
same,cell loss,[3]; TC 120 mg/kg,12%
same,neuronal drop out,"[3]; TC 120 mg/kg, thalamic nuclei (range)",4-19%
same,cell loss (drop out),"[3]; TC30, 60 and 90 groups (range printed together with DZP group), hilus of dentate gyrus",61-66%
same,cell loss,"[3]; TC30, 60 or 90 rats (range over groups)",36-47%
same,mean Timm score in the upper blade of the dentate gyrus,[4]; TC 10 mg/kg (n=7),1.5±0.6
same,mean Timm score in the upper blade of the dentate gyrus,[4]; TC 30 mg/kg (n=10),2.6±1.0
same,mean Timm score in the upper blade of the dentate gyrus,"[4]; TC 60 mg/kg, whole group (n =11)",1.5±0.7
same,mortality over the first 48 h after SE,"[5]; TC 30 mg/kg, group devoted to cell counting at 14 days (4/12)",33%
same,mortality over the first 48 h after SE,"[5]; TC 30 mg/kg, group devoted to latency to SRS and late cell counting (3/11)",27%
same,mortality over the first 48 h after SE,"[5]; TC 60 mg/kg, group devoted to cell counting at 14 days (1/12)",8%
same,mortality over the first 48 h after SE,"[5]; TC 60 mg/kg, group devoted to latency to SRS and late cell counting (0/10)",0%
same,mortality over the first 48 h after SE,"[5]; TC 90 mg/kg, group devoted to cell counting at 14 days (0/10)",0%
same,mortality over the first 48 h after SE,"[5]; TC 90 mg/kg, group devoted to latency to SRS and late cell counting (0/11)",0%
same,mortality over the first 48 h after SE,"[5]; TC 120 mg/kg, group devoted to cell counting at 14 days (4/12)",33%
same,mortality over the first 48 h after SE,"[5]; TC 120 mg/kg, group devoted to latency to SRS and late cell counting (0/9)",0%
same,EEG after injection at 24 and 48 h after SE (silent period),"[6]; TC 10 mg/kg, between 1 and 8 h after injection",no change
same,EEG by 6-7 h of SE,"[6]; TC 10 mg/kg, cortex and hippocampus",spiking activity was still present in the cortex and the hippocampus
same,amplitude of the EEG by 6-7 h of SE,"[6]; TC 30 mg/kg, hippocampus",came back to baseline levels
same,amplitude of the EEG by 6-7 h of SE,"[6]; TC 60 mg/kg, hippocampus and cortex",came back to baseline levels
same,EEG after injection at 24 and 48 h after SE (silent period),"[6]; TC 30 and 60 mg/kg, as soon as 10 min after injection",frequency and amplitude of PEDs decreased
